The values that follow come from patent US9238039B2, “Pyrazolo[1,5-A]pyrimidines for antiviral treatment” (Gilead Sciences, Inc., priority 2010, dated 2016).

Each structure is given as a SMILES string.

This assay concerns RSV strain A2. Nature of the assay: RSV antiviral cytoprotection assay in Hep2 cells (96-well and 384-well format, Cell TiterGlo read-out). Type of assay: cell-based, Respiratory Syncytial Virus (RSV). The following applies: human respiratory syncytial virus; for inhibition at 0.5 µM: HEp-2, 0.5 uM; for inhibition at 0.5 µM / inhibition at 1 µM: RSV-induced cytopathic effect in Hep2 cells, calculated from fitted dose response curve, normalized to 0% and 100%; for EC50: HEp-2, RSV-induced cytopathic effects, Hep2 cells, class symbols; for inhibition at 1 µM: HEp-2, 1 uM.

For `Cc1cc(C2CC2)nc2cc([C@@H]3CCCCN3C(=O)c3cc(Cl)ccc3NS(C)(=O)=O)nn12` [Compound 60], the inhibition (in general, the drop in the measured response relative to a control, in per cent) at 0.5 µM was 100% and the EC50 (usually the midpoint of the concentration-response curve) lay within 0.1 to 100 nM.

Regarding `Cc1cn2nc([C@@H]3Cc4ccccc4CN3C(=O)c3cc(Cl)ccc3NS(C)(=O)=O)cc2nc1N1CC[C@H](N)C1` [Compound 176], the inhibition at 0.5 µM is 100% and the EC50 fell in the range of 0.1 to 100 nM.

On to `Cc1cccc(C(=O)N2CCCC[C@H]2c2cc3nc(N4CC[C@H](N)C4)c(C)cn3n2)c1` [Compound 157], for which the inhibition at 0.5 µM is 100% and the EC50 was in the range of 0.1 to 100 nM.

Consider `Cc1ccc(NS(C)(=O)=O)c(C(=O)N2CCCC[C@H]2c2cc3nc(C)c(C)c(N4CCOCC4)n3n2)c1` [Compound 104], for which the inhibition at 0.5 µM was 100% and the EC50 was 0.1 to 100 nM.

For the compound `Cc1cn2nc([C@@H]3CCCCN3C(=O)c3ccc4[nH]c(C)c(C)c4c3)cc2nc1N1CC[C@H](N)C1` [Compound 386], the inhibition at 0.5 µM was 97% and the EC50 lay within 0.1 to 100 nM.

Turning to `CCn1cc(C(=O)N2CCCC[C@H]2c2cc3nc(N4CC[C@H](N)C4)c(C)cn3n2)cn1` [Compound 281], the inhibition at 0.5 µM is 37% and the EC50 was in the range of 101 to 1000 nM.

In the case of `Cc1cn2nc([C@@H]3CCCCN3C(=O)c3ccnc(Cl)c3F)cc2nc1N1CC[C@H](N)C1` [Compound 352], the inhibition at 0.5 µM is 100% and the half-maximal effective concentration (EC50) fell in the range of 0.1 to 100 nM.

Consider `Cc1cn2nc([C@@H]3CCCCN3C(=O)c3cnco3)cc2nc1N1CC[C@H](N)C1` [Compound 259], for which the inhibition at 0.5 µM was 28% and the EC50 lay in the range of 1000 to 10000 nM.

For the compound `Cc1cc(N2CC(O)C2)nc2cc([C@@H]3CCCCN3C(=O)c3cc(Cl)ccc3NS(C)(=O)=O)nn12` [Compound 40], the inhibition at 0.5 µM was 100% and the EC50 lay in the range of 0.1 to 100 nM.

For `Cc1cc(N2CCCC2)nc2cc([C@@H]3CCCCN3C(=O)c3cc(Cl)ccc3NS(C)(=O)=O)nn12` [Compound 46], the inhibition at 0.5 µM was 100% and the EC50 is 0.1 to 100 nM.

Consider `COc1ccc(C(=O)N2CCCC[C@H]2c2cc3nc(N4CC[C@H](N)C4)c(C)cn3n2)c(C)c1` [Compound 322], for which the inhibition at 0.5 µM is 100% and the EC50 lay in the range of 0.1 to 100 nM.

For the compound `Cc1ccc(NS(C)(=O)=O)c(C(=O)N2Cc3ccccc3C[C@H]2c2cc3[nH]c(C)c(C)c(=O)n3n2)c1` [Compound 33], the inhibition at 0.5 µM was 98% and the EC50 lay in the range of 0.1 to 100 nM.

As for `Cc1cc(C(=O)N2CCCC[C@H]2c2cc3nc(N4CC[C@H](N)C4)c(C)cn3n2)n(C(F)F)n1` [Compound 354], the inhibition at 0.5 µM was 87% and the EC50 lay in the range of 101 to 1000 nM.

For the compound `Cc1cn2nc([C@@H]3CCCCN3C(=O)c3cc(Cl)ccc3NS(C)(=O)=O)cc2nc1N1CC(OP(=O)(O)O)C1` [Compound 244], the inhibition at 0.5 µM was 88% and the EC50 is 0.1 to 100 nM.

Turning to `Cc1ccc(NS(C)(=O)=O)c(C(=O)N2CCCC[C@H]2c2cc3nc(C)c(C)c(N(C)C)n3n2)c1` [Compound 101], the inhibition at 0.5 µM was 100% and the EC50 is 0.1 to 100 nM.

With `Cc1cn2nc([C@@H]3CCCCN3C(=O)c3cc(C4(O)CCCC4)on3)cc2nc1N1CC[C@H](N)C1` [Compound 405], the inhibition at 0.5 µM is 99% and the EC50 was in the range of 0.1 to 100 nM.

For the compound `CS(=O)(=O)Nc1ccc(Cl)cc1C(=O)N1CCCC[C@H]1c1cc2nc(C3CCC3)cc(N3CCOCC3)n2n1` [Compound 73], the inhibition at 0.5 µM was 99% and the EC50 fell in the range of 0.1 to 100 nM.

Consider `CC(=O)Nc1ccc(F)cc1C(=O)N1CCCC[C@H]1c1cc2[nH]c(C)c(C)c(=O)n2n1` [Compound 16], for which the inhibition at 0.5 µM is 89%, the inhibition at 1 µM is 97% and the EC50 was in the range of 0.1 to 100 nM.

Regarding `CS(=O)(=O)Nc1ccc(Cl)cc1C(=O)N1CCCC[C@H]1c1cc2nc(N3CC[C@@H](C#N)C3)cc(N3CCOCC3)n2n1` [Compound 228], the inhibition at 0.5 µM is 100% and the EC50 was in the range of 0.1 to 100 nM.

For `COC1CN(c2nc3cc([C@@H]4CCCCN4C(=O)c4cc(Cl)ccc4NS(C)(=O)=O)nn3cc2C)CC1N` (some centres unmarked) [Compound 167], the inhibition at 0.5 µM was 100% and the 50% effective concentration (EC50) was in the range of 0.1 to 100 nM.

In the case of `Cc1cn2nc([C@@H]3CCCCN3C(=O)c3cc(-c4ccccc4)on3)cc2nc1N1CC[C@H](N)C1` [Compound 383], the inhibition at 0.5 µM is 99% and the EC50 lay in the range of 0.1 to 100 nM.

Turning to `Cc1ccc(NS(C)(=O)=O)c(C(=O)N2CCCC[C@H]2c2cc3nc(C4CC4)cc(N4CCC4)n3n2)c1` [Compound 65], the inhibition at 0.5 µM is 100% and the EC50 was in the range of 0.1 to 100 nM.

With `CS(=O)(=O)Nc1ccc(Cl)cc1C(=O)N1CCCC[C@H]1c1cc2nc(N3CCC3)cc(N3CCCCN3)n2n1` [Compound 252], the inhibition at 0.5 µM is 92% and the EC50 lay in the range of 0.1 to 100 nM.

Consider `CS(=O)(=O)Nc1ccc(Cl)cc1C(=O)N1CCCC[C@H]1c1cc2nc(N3CCC3)cc(N3CCSC3)n2n1` [Compound 106], for which the inhibition at 0.5 µM was 100% and the EC50 is 0.1 to 100 nM.

As to `C[C@H]1CC[C@@H](c2cc3nc(N4CC(N)C4)cc(N4CCOCC4)n3n2)N(C(=O)c2cc(Cl)ccc2NS(C)(=O)=O)C1` [Compound 142], the inhibition at 0.5 µM was 100% and the EC50 fell in the range of 0.1 to 100 nM.

With `Cc1ccccc1C(=O)N1CCCC[C@H]1c1cc2nc(N3CC[C@H](N)C3)c(C)cn2n1` [Compound 158], the inhibition at 0.5 µM was 100% and the EC50 lay in the range of 0.1 to 100 nM.

As to `CCCn1nc(C)cc1C(=O)N1CCCC[C@H]1c1cc2nc(N3CC[C@H](N)C3)c(C)cn2n1` [Compound 329], the inhibition at 0.5 µM is 98% and the EC50 lay within 0.1 to 100 nM.

Take `COc1cccc(C(=O)N2CCCC[C@H]2c2cc3nc(N4CC[C@H](N)C4)c(C)cn3n2)c1Cl` [Compound 377]: the inhibition at 0.5 µM was 99% and the EC50 was 0.1 to 100 nM.

Take `Cc1cn2nc([C@@H]3CCCCN3C(=O)c3onc(C)c3C)cc2nc1N1CC[C@H](N)C1` [Compound 283]: the inhibition at 0.5 µM was 99.8% and the EC50 was in the range of 0.1 to 100 nM.

Take `Cc1cc(Cl)cc(C(=O)N2CCCC[C@H]2c2cc3[nH]c(C)c(C)c(=O)n3n2)c1NS(C)(=O)=O` [Compound 120]: the inhibition at 0.5 µM was 100% and the EC50 lay within 0.1 to 100 nM.

As for `Cc1ccc(C(=O)N2CCCC[C@H]2c2cc3nc(N4CC[C@H](N)C4)c(C)cn3n2)c(F)c1` [Compound 298], the inhibition at 0.5 µM is 21% and the EC50 fell in the range of 101 to 1000 nM.

Consider `Cc1cn2nc([C@@H]3CCCCN3C(=O)c3cc(Cl)ccc3NS(C)(=O)=O)cc2nc1N1CC[C@@H](CN)C1` [Compound 151], for which the inhibition at 0.5 µM was 99% and the EC50 fell in the range of 0.1 to 100 nM.

For `C[C@@H]1CN(c2cc(N3CCC3)nc3cc([C@@H]4CCCCN4C(=O)c4cc(Cl)ccc4NS(C)(=O)=O)nn23)CCN1` [Compound 154], the inhibition at 0.5 µM was 100% and the EC50 was 0.1 to 100 nM.

With `Cc1cn2nc([C@@H]3CCCCN3C(=O)c3nonc3NCCO)cc2nc1N1CC[C@H](N)C1` [Compound 342], the inhibition at 0.5 µM was 79% and the EC50 was in the range of 101 to 1000 nM.

`Cc1cn2nc([C@@H]3CCCCN3C(=O)c3ccnn3C)cc2nc1N1CC[C@H](N)C1` [Compound 263]: the inhibition at 0.5 µM is 99% and the EC50 lay within 0.1 to 100 nM.

Turning to `Cc1cn2nc([C@@H]3CCCCN3C(=O)c3ccccc3)cc2nc1N1CC[C@H](N)C1` [Compound 412], the inhibition at 0.5 µM was 100% and the EC50 was in the range of 0.1 to 100 nM.

As to `Cc1cn2nc([C@@H]3CCCCN3C(=O)c3cc(Cl)ccc3NS(C)(=O)=O)cc2nc1N1CC[C@@H](CO)C1` [Compound 198], the inhibition at 0.5 µM was 95% and the EC50 lay within 0.1 to 100 nM.

Regarding `Cc1cn2nc([C@@H]3CCCCN3C(=O)c3nnn(C)c3C)cc2nc1N1CC[C@H](N)C1` [Compound 285], the inhibition at 0.5 µM was 100% and the EC50 was 0.1 to 100 nM.

In the case of `Cc1cn2nc([C@@H]3CCCCN3C(=O)c3ccc(C(N)=O)s3)cc2nc1N1CC[C@H](N)C1` [Compound 336], the inhibition at 0.5 µM is 78% and the EC50 lay within 101 to 1000 nM.

Turning to `Cc1cn2nc([C@@H]3CCCCN3C(=O)c3cc(Cl)ccc3NS(C)(=O)=O)cc2nc1N1CCC(Oc2ccccc2)C1` (some centres unmarked) [Compound 208], the inhibition at 0.5 µM was 95% and the EC50 was 0.1 to 100 nM.

Turning to `CC(=O)Nc1ccc(C)cc1C(=O)N1CCCC[C@H]1c1cc2nc(N3CC(O)C3)c(C)cn2n1` [Compound 221], the inhibition at 0.5 µM is 100% and the EC50 lay within 0.1 to 100 nM.

As for `Cc1cc(C2CC2)nc2cc([C@@H]3CCCCN3C(=O)C(NC(=O)OC(C)(C)C)c3ccccc3)nn12` (some centres unmarked) [Compound 242], the inhibition at 0.5 µM is 72% and the EC50 was 101 to 1000 nM.

Consider `Cc1[nH]c2cc([C@@H]3C[C@@H](C)CCN3C(=O)c3cc(F)ccc3NS(C)(=O)=O)nn2c(=O)c1C` [Compound 22], for which the inhibition at 0.5 µM was 95%, the inhibition at 1 µM is 99% and the EC50 was in the range of 0.1 to 100 nM.

As to `Cc1cn2nc([C@@H]3CCCCN3C(=O)c3nccc4ccccc34)cc2nc1N1CC[C@H](N)C1` [Compound 344], the inhibition at 0.5 µM is 100% and the EC50 was in the range of 0.1 to 100 nM.

In the case of `CS(=O)(=O)Nc1ccc(Cl)cc1C(=O)N1CCCC[C@H]1c1cc2nc(NCCO)cc(N3CCOCC3)n2n1` [Compound 247], the inhibition at 0.5 µM was 94% and the EC50 lay in the range of 0.1 to 100 nM.

Turning to `Cc1cn2nc([C@@H]3CCCCN3C(=O)c3cc(Cl)ccc3NS(C)(=O)=O)cc2nc1N1CCC(N)CC1` [Compound 216], the inhibition at 0.5 µM is 100% and the EC50 fell in the range of 0.1 to 100 nM.

`CCc1cc(C(=O)N2CCCC[C@H]2c2cc3nc(N4CC[C@H](N)C4)c(C)cn3n2)n(C)n1` [Compound 303]: the inhibition at 0.5 µM is 100% and the EC50 was in the range of 0.1 to 100 nM.

Consider `COc1ccc(Cl)c(C(=O)N2CCCC[C@H]2c2cc3nc(N4CC[C@H](N)C4)c(C)cn3n2)c1` [Compound 374], for which the inhibition at 0.5 µM was 100% and the EC50 lay in the range of 0.1 to 100 nM.
